Consider eleven compounds from ChEMBL document CHEMBL1157522 (Bioorg Med Chem Lett, 2008).

The structures appear in SMILES notation. Calls of active or inactive are those of the source. The calls are words filed in the database; no cut-off is given here.

Data set [1] concerns the target Tissue-type plasminogen activator (Homo sapiens) (UniProt P00750). Briefly: Inhibition of human tPA.
Data set [2] has as its target Vitamin K-dependent protein C (Homo sapiens) (UniProt P04070). Briefly: Inhibition of human activated protein C.
The target of data set [3] is T1, Coagulation factor VII (Homo sapiens) (UniProt P08709).
T1 sequence (whole entry): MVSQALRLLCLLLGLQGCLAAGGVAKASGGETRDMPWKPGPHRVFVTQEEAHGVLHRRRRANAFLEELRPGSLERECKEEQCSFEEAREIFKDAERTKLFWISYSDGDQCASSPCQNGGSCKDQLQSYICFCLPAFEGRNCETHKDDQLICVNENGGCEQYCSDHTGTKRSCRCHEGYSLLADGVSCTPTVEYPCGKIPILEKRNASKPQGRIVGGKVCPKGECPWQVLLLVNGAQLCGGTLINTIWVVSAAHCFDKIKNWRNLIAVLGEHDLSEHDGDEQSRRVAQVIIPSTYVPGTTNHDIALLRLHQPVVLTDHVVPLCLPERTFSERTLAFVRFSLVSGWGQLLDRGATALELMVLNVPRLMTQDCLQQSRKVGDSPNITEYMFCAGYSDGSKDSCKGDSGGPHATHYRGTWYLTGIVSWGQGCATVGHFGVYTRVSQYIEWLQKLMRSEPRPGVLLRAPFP
Put plainly: Inhibition of human factor 7a.

Data set [4] deals with Coagulation factor IX (Homo sapiens) (UniProt P00740). Briefly: Inhibition of human factor 9a.
Another data set concerns the target Trypsin (Homo sapiens) (UniProt P07477+P07478+P35030). Put plainly: Inhibition of human trypsin. The format is protein assay.
The species entered for a further data set is Homo sapiens. Briefly: Inhibition of human chymotrypsin.
A further data set concerns the target Coagulation factor X (Homo sapiens, UniProt P00742). Briefly: Inhibition of human factor 10a.
Data set [5] has as its target Plasminogen (Homo sapiens) (UniProt P00747). Put plainly: Inhibition of human plasmin.
The target of data set [6] is Plasma kallikrein (Homo sapiens) (UniProt P03952). Briefly: Inhibition of human plasma kallikrein. The class given is cell-free.
The nature of data set [7]: Half life in dog at 0.2 mg/kg, po. The format is ADME, organism-based, Canis lupus familiaris. The arrangement: dose 0.2 mg/kg, route oral. As to conditions: in vivo.
The nature of data set [8]: Metabolic stability in human liver microsomes assessed as half life. The class given is ADME, Microsome. Background: Liver microsomes are vesicles of endoplasmic reticulum, rich in cytochrome P450 enzymes.
Data set [9] can be described thus: Clearance in dog at 0.5 mg/kg, iv. The class given is ADME, organism-based, Canis lupus familiaris. The arrangement: dose 0.5 mg/kg, route intravenous. As to conditions: in vivo.
A short description of data set [10]: (§1) Volume of distribution at steady state in dog. The format is ADME, organism-based, Canis lupus familiaris. The note with it: in vivo, read-out: Vdss.
Data set [11] can be described thus: Bioavailability in dog at 0.5 mg/kg, iv. The format is ADME, organism-based, Canis lupus familiaris. The note with it: in vivo.
A further data set is filed under the species Canis familiaris. The description is as §1. The format is ADME, organism-based, Canis lupus familiaris. As to conditions: in vivo.

Chain of Plasminogen (Homo sapiens) (P00747 97-580 limits assumed): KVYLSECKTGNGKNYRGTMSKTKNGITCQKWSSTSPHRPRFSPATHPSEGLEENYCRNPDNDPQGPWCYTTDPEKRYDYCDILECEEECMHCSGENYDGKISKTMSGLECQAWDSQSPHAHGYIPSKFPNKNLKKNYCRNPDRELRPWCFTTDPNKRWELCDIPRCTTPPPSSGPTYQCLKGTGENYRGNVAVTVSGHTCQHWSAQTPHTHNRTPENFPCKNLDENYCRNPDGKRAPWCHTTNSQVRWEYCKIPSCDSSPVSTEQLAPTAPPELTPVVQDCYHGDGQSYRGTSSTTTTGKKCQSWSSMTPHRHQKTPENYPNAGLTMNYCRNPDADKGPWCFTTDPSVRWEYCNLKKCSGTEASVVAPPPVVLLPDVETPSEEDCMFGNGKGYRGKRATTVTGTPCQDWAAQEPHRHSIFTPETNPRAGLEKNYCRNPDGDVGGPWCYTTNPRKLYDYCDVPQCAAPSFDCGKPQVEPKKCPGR
Chain of Plasminogen (Homo sapiens) (P00747 581-810 limits assumed): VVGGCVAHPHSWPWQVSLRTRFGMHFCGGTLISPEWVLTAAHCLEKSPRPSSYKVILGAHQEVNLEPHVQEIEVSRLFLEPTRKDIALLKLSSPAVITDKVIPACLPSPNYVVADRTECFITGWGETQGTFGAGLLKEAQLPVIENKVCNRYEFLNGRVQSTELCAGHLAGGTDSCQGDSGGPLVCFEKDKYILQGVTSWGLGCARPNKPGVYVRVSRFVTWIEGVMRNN
Chain of Plasma kallikrein (Homo sapiens) (P03952 20-390 limits assumed): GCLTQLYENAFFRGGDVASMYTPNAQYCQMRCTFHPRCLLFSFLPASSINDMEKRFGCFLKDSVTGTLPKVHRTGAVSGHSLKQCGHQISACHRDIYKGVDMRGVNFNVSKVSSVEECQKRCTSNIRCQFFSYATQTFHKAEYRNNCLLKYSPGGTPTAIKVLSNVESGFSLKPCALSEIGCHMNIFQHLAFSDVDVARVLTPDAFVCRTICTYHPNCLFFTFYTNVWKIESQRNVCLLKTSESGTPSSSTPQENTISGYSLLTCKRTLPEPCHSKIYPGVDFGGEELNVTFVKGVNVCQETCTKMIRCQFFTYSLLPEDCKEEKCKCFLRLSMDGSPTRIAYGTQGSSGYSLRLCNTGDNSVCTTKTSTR
Chain of Plasma kallikrein (Homo sapiens) (P03952 391-638 limits assumed): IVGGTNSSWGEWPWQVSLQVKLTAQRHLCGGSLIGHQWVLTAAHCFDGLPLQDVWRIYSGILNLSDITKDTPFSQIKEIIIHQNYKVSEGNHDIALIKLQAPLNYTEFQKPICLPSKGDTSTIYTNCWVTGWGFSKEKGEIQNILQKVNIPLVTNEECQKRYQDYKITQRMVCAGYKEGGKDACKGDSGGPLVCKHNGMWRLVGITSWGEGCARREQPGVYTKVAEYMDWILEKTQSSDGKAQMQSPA
Chain of Tissue-type plasminogen activator (Homo sapiens) (P00750 36-562 limits assumed): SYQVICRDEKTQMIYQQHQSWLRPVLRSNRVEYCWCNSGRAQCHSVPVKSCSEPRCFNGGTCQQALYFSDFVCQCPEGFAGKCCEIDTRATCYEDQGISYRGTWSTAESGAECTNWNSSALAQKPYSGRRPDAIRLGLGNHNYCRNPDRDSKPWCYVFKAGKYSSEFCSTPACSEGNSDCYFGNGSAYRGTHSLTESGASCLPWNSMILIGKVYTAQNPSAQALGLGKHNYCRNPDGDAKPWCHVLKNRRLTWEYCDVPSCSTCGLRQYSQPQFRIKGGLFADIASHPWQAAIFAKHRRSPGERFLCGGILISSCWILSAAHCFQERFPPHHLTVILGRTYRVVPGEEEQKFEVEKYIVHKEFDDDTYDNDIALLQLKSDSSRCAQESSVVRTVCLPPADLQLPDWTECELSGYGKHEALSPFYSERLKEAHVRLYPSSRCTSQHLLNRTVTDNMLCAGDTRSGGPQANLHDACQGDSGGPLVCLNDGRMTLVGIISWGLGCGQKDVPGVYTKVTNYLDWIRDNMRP
Chain of Coagulation factor IX (Homo sapiens) (P00740 47-191 limits assumed): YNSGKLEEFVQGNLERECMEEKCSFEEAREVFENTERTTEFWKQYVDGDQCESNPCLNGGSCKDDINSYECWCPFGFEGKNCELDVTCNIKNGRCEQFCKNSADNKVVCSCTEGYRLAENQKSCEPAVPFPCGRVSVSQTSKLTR
Chain of Coagulation factor IX (Homo sapiens) (P00740 227-461 limits assumed): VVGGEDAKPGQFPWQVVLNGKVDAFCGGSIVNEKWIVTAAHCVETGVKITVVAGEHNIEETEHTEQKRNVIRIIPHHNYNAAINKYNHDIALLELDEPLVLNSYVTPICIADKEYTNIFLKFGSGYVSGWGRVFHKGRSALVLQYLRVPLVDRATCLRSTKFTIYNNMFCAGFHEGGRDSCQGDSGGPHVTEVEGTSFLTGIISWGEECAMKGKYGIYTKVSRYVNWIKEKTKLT
Chain of Vitamin K-dependent protein C (Homo sapiens) (P04070 43-197 limits assumed): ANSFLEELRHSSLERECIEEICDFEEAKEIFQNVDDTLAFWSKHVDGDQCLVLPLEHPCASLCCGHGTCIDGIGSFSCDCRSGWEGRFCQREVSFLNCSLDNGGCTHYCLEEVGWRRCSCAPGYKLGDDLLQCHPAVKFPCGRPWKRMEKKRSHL
Chain of Vitamin K-dependent protein C (Homo sapiens) (P04070 212-461 limits assumed): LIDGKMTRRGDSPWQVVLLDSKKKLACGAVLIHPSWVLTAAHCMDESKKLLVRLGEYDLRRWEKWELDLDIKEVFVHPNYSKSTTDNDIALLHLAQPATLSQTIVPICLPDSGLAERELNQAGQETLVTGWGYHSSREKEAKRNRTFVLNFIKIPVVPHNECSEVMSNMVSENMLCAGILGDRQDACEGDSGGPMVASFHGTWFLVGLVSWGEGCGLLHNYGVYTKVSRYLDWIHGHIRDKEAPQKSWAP
Chain of Coagulation factor X (P00742 41-179 limits assumed): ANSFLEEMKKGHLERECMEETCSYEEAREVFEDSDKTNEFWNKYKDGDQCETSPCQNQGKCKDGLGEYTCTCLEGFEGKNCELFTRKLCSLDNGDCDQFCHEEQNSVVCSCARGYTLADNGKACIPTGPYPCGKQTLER
Chain of Coagulation factor X (P00742 235-488 limits assumed): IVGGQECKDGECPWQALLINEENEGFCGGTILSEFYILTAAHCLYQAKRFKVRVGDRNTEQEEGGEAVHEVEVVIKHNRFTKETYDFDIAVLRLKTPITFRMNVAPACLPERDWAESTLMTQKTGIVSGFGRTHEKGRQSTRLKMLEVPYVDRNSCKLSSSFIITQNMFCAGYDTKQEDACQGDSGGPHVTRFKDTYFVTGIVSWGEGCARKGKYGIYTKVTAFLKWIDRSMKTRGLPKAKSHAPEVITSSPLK

Regarding `CCNC(=O)N(C)CC1(c2ccc(N3CCc4c(C(F)(F)F)nn(-c5ccc(OC)cc5)c4C3=O)cc2)CC1`, the result (in data set [1]; in data set [2]; in data set [3]; in data set [4]; on Trypsin (Homo sapiens); in the data set filed under Homo sapiens) was inactive. The result in data set [5] and in data set [6] was inactive. In addition, the Ki (commonly the dissociation constant of the complex between target and ligand, obtained from inhibition or displacement) on Coagulation factor X was 0.14 nM.

On to `COc1ccc(-n2nc(C(F)(F)F)c3c2C(=O)N(c2ccc(C4(C(=O)Nc5nncs5)CC4)cc2)CC3)cc1`, for which the result (in data set [1]; in data set [2]; in [3]; in data set [4]; on Trypsin (Homo sapiens); in the data set filed under Homo sapiens) was inactive. Further, the result in data set [5] and in data set [6] was inactive. This compound also returned a Ki at Coagulation factor X of 1.8 nM.

On to `COc1ccc(-n2nc(C(F)(F)F)c3c2C(=O)N(c2ccc(C4(C(=O)N5CCC(O)CC5)CC4)cc2)CC3)cc1`, for which the outcome (in data set [1]; in data set [2]; in [3]; in data set [4]; on Trypsin (Homo sapiens); in the data set filed under Homo sapiens) was inactive. The outcome in [5] and in [6] was inactive. The same compound registered a Ki at Coagulation factor X of 54 nM.

As to `COc1ccc(-n2nc(C(F)(F)F)c3c2C(=O)N(c2ccc(C4(CN(C)C)CC4)cc2)CC3)cc1`, the half-life (in general, the time in which the quantity being followed falls by half) in data set [7] was 12 h; in data set [8], 1.83 h. For the same compound, the outcome (in data set [1]; in data set [2]; in data set [3]; in [4]; in the data set listed under Homo sapiens; in [5]) was inactive. In addition, the result in [6] was inactive. Also, in [9], the clearance (as a rule, the volume of plasma or blood freed of the substance per unit of time) was 20 mL/min/kg. For the same compound, the Vd in [10] was determined as 15 L/kg. In [11], the bioavailability (usually dose-corrected exposure relative to a reference, in per cent) came out at 53%.

As for `COc1ccc(-n2nc(C(F)(F)F)c3c2C(=O)N(c2ccc(C4(C(=O)NC5CCCC5)CC4)cc2)CC3)cc1`, the result (in data set [1]; in data set [2]; in data set [3]; in [4]; on Trypsin (Homo sapiens); in the data set listed under Homo sapiens) was inactive. Besides, the result in [5] and in data set [6] was inactive. Besides, the Ki on Coagulation factor X was 30 nM.

For the compound `COc1ccc(-n2nc(C(F)(F)F)c3c2C(=O)N(c2ccc(C4(C(=O)N(C)C)CC4)cc2)CC3)cc1`, the outcome (in [1]; in data set [2]; in data set [3]; in data set [4]; on Trypsin (Homo sapiens); in the data set filed under Homo sapiens) was inactive. Moreover, the result in [5] and in data set [6] was inactive. On Coagulation factor X, the affinity corresponds to a Ki of 5.8 nM.

For the compound `COc1ccc(-n2nc(C(F)(F)F)c3c2C(=O)N(c2ccc(C4(CNc5nccs5)CC4)cc2)CC3)cc1`, the result (in data set [1]; in [2]; in [3]; in data set [4]; on Trypsin (Homo sapiens); in the data set listed under Homo sapiens) was inactive. The result in data set [5] and in data set [6] was inactive. The compound further returned a Ki at Coagulation factor X of 0.054 nM.

On to `CN(C)Cc1nccn1-c1ccc(NC(=O)c2cc(C(F)(F)F)nn2-c2ccc3onc(N)c3c2)c(F)c1` [RAZAXABAN], for which the half-life in data set [8] stood at 0.6 h. Besides, the Vdss (usually the apparent volume that relates the amount in the body to the concentration in plasma or blood) in the data set filed under Canis familiaris worked out at 5.3 L/kg. This compound came in with a bioavailability in data set [11] of 84%.

Regarding `CCN(CC)CC1(c2ccc(N3CCc4c(C(F)(F)F)nn(-c5ccc(OC)cc5)c4C3=O)cc2)CC1`, the result (in data set [1]; in data set [2]; in data set [3]; in data set [4]; at Trypsin (Homo sapiens); in the data set filed under Homo sapiens) was inactive. Further, the result in [5] and in [6] was inactive. On Coagulation factor X, this compound came in with a Ki of less than 0.02 nM.

Consider `COc1ccc(-n2nc(C(F)(F)F)c3c2C(=O)N(c2ccc(C4(C(N)=O)CC4)cc2)CC3)cc1`, for which the result (in [1]; in [2]; in [3]; in data set [4]; on Trypsin (Homo sapiens); in the data set filed under Homo sapiens) was inactive. The result in data set [5] and in [6] was inactive. Further, on Coagulation factor X, the affinity, expressed as Ki, was 3.3 nM.

With `COc1ccc(-n2nc(C(F)(F)F)c3c2C(=O)N(c2ccc(C4(C#N)CC4)cc2)CC3)cc1`, the result (in data set [1]; in data set [2]; in data set [3]; in data set [4]; on Trypsin (Homo sapiens); in the data set listed under Homo sapiens) was inactive. Further, the outcome in data set [5] and in data set [6] was inactive. The same compound gave a Ki on Coagulation factor X of 1.8 nM.
